Laboratory results published in US20240239753A1, “METHOD FOR CRYSTALLIZATION OF AROMATIC AMINO ACIDS, ENABLING SUSTAINABLE CYCLE OF AMMONIA” (CJ CheilJedang Corporation, priority 2021, published 2024).

Experiment: Analysis of solubility of L-tryptophan depending on pH of solution
Format: physicochemical
Settings: distilled water/ammonia water mixtures, 30° C., stirring 12 hours or more, supernatant by HPLC; pH of the solution 10 or more (FIG. 2)
Procedure: Measurement of solubility of L-tryptophan amino acids was performed in a 1 L jacket reactor made of glass. After mixing distilled water and ammonia water in the 1 L jacket reactor at various ratios, an excess of L-tryptophan crystals was added and they were stirred, thereby preparing a reaction solution comprising L-tryptophan crystals. After that, while maintaining the internal temperature of the reactor at 30° C. constantly using freezing/heating circulation apparatus (model F35, Julabo, Germany), these conditions were applied with stirring for 12 hours or more. Then, when the stirring was stopped and all L-tryptophan crystals were sunk, a part of clear supernatant was transferred to a syringe sampler equipped with a 0.45 μm syringe filter. At this time, the pH of the corresponding solution was measured suing a pH measuring instrument (model S220, Mettler Toledo, US). The concentration of the corresponding sample was measured using HPLC, after diluting with tertiary distilled water using a volumetric flask. The concentration of the supernatant sample was assumed with the solubility, and the change in solubility of L-tryptophan depending on pH of solution was shown in FIG. 2. In other words, the pH of the solution could be confirmed that the solubility of L-tryptophan increased from the time when the pH of the solution was to be 10 or more.

- change in solubility of L-tryptophan depending on pH of solution: increased
Structure (SMILES): N[C@@H](Cc1c[nH]c2ccccc12)C(=O)O [L-tryptophan]
